In patent publication US20170224833A1, “SELF-ASSEMBLING MOLECULES THAT ACCUMULATE IN ACIDIC TUMOR MICROENVIRONMENTS” (OHIO STATE INNOVATION FOUNDATION, priority 2014, published 2017):
Blank lines part the entries; values can stand above or below the compound they belong to. Residues, ends and D or L forms follow the SMILES beside them. No end group written: not given here. *: point of attachment. Rubipy = bis(2,2'-bipyridine)-4'-methyl-4-carboxybipyridine ruthenium(II), conjugated to the lysine epsilon-amine; Palmitoyl = CCCCCCCCCCCCCCCC(=O)*

Tests used:
Assay type in all cases: physicochemical
[1] = Circular dichroism (CD) spectroscopy of pH-triggered self-assembly transition in 150 mM NaCl, 2.2 mM CaCl2; details: for CD Transition pH: 10 μM PA, 150 mM NaCl, 2.2 mM CaCl2, random coil to β-sheet
Protocol: The target PA concentration (10 μM) was below the detectable limit of conventional techniques to determine the morphology such as cryoTEM and small-angle X-ray scattering. Consequently, circular dichroism (CD) spectroscopy was initially used to characterize the morphology of these PAs at various pH values. PA1 was the first molecule synthesized that underwent a self-assembly transition in the desired pH range of 6.6-7.4 at 10 μM PA concentration, in 150 mM NaCl and 2.2 mM CaCl2 (FIG. 2A) (Goldberger, J. E., et al. Angew. Chem. Int. Ed. 2011 50:6292-95). […] The transition pH from random coil to β-sheet occurred at a pH of 6.6. The transition pH was defined as the value at which the ellipticity at 205 nm rises to zero, followed by the appearance of a minimum at 218-220 nm.
Measurements were done on a Jasco-815 Circular Dichroism spectrometer using 1 cm path length quartz cuvettes. 10 μM solutions of peptide amphiphiles were prepared in 150 mM NaCl and 2.2 mM CaCl2 by dilution from a concentrated PA stock (0.5-1 mM, pH 9). Double de-ionized Milli-Q water was used for preparing all solutions. The solutions were then heated at 80° C. for 30 minutes in a water bath and gradually cooled to room temperature. An Accumet XL15 pH meter (Fisher Scientific) coupled with an Orion Ross Ultra semi-micro electrode (8103BNUWP, Thermo Scientific) was used to adjust the pH of the solution to the desired value followed by collection of the CD spectra Each trace shown was averaged over 3 accumulations and was baseline subtracted using aqueous solutions containing salts only. All spectra are cut-off below 205 nm due to absorption by NaCl and CaCl2.
Measurements were done on a Jasco-815 Circular Dichroism spectrometer using 0.5-1 cm path length quartz cuvettes. 500-10 μM of either pure PA or PA mixtures were prepared in 150 mM NaCl and 2.2 mM CaCl2 (and 1.8 mM 20 kDa PEG in select samples) by dilution from a concentrated PA stock (0.5-1 mM, pH 9). Double de-ionized Milli-Q water was used for preparing all solutions. The solutions were then heated at 80° C. for 30 minutes in a water bath and gradually cooled to room temperature. An Accumet XL15 pH meter (Fisher Scientific) coupled with an Orion Ross Ultra semi-micro electrode (8103BNUWP, Thermo Scientific) was used to adjust the pH of the solution to the desired value followed by collection of the CD spectra. Each trace shown was averaged over 3 accumulations and was baseline subtracted using aqueous solutions containing salts only. All spectra are cut-off below 200 nm due to absorption by NaCl and CaCl2. The same procedure was followed for the salt control samples with 3.0 and 4.0 mM CaCl2.
Self-assembly behavior is known to be extremely sensitive to minor changes in monomer structure and presence of impurities. […] CAC measurements via the pyrene 1:3 method (Das, D. et al. J. Colloid Interface Sci. 2008, 327:198) were used to ascertain the single molecule to spherical micelle transitions at varying pH values (FIGS. 24A-24C). CD Spectroscopy was used to determine the pH points at which different concentrations (10-500 μM) of the PA molecules transitioned from a random coil to a β-sheet secondary structure (FIGS. 25A-25C). It has been previously shown that the random coil and β-sheet structures correspond to spherical micellar/isolated molecule and nanofiber morphologies respectively (Ghosh, A. et al. J. Am. Chem. Soc. 2012, 134:3647). The CD transition point was defined to be the pH value at which the ellipticity at 200 nm rose from a negative value (random coil) to zero accompanied by the appearance of a minimum at 218-220 nm. The addition of PA66 shifted the CD transition pH to more basic values by ˜0.6 pH units. […] This ˜0.6 pH shift in CD transition pH to more basic values were also observed when 1.5% of PA67 was added to PA65. […]

[2] = Transmission electron microscopy (TEM) of self-assembled morphology
Protocol: TEM images were obtained using solutions of either 10 μM or 0.5 mM peptide amphiphile concentration, as well as 150 mM NaCl and 2.2 mM CaCl2 in Milli-Q water. The solutions were first heated at 80° C. for 30 minutes in a water bath and then gradually cooled to room temperature. This was followed by pH adjustment using either HCl or NaOH. 5 μL of this solution was pipetted onto a Carbon Formvar grid (Electron Microscopy Sciences) and allowed to sit for 2 minutes before being wicked dry using filter paper. For the 10 μM experiments that were performed to determine the time dependence of nanofiber formation, solutions were dropcast onto the grid within three minutes of pH adjustment. The samples were then negatively stained using 1 wt % uranyl acetate and imaged under a FEI Tecnai G2 Bio TWIN TEM system, operating at 100 kV. All TEM experiments were performed in triplicate, using at least three different freshly prepared solutions and grids. […]
TEM images were obtained at various concentrations and pH values, with 150 mM NaCl and 2.2 mM CaCl2 in deionized water. Solutions were heated at 80° C. for 30 minutes and gradually cooled to room temperature. Following temperature equilibration, pH adjustment was achieved using HCl or NaOH. 5 μL of this solution was pipetted onto a Carbon Formvar grid (Electron Microscopy Sciences) and allowed to sit for 2 minutes before being wicked dry using filter paper strips. The samples were negatively stained with 1 wt % uranyl acetate and imaged under a FEI Tecnai G2 Bio TWIN TEM system operating at 100 kV.
Transmission electron microscopy was employed to confirm the self-assembled morphology at different pH values and concentrations. The sample to be tested was basified to a pH of 10, stirred at 90° C. in an oil bath for 30 minutes and cooled to room temperature. The pH was then adjusted with HCl and NaOH to set the peptide solution (in 150 mM NaCl and 2.2 mM CaCl2) to a pH of either 5 or 9. Once the desired pH was reached, 5 μL of the sample was placed and spread onto a Carbon Formvar grid (Electron Microscopy Sciences) and allowed to sit for one minute before being wicked dry with filter paper. A 1 wt % uranyl acetate solution was added and spread over the grid to negatively stain the sample, and was wicked dry immediately after application. The grid was then examined by a FEI Tecnai G2 Biotwin TEM at 100 keV. The diameters of each self-assembled morphology was determined via averaging at least 30 different objects.

[3] = pH titration of peptide amphiphiles (pKa); details: 10 μM
Protocol: The titration measurements were conducted on 10 μM peptide amphiphile solutions prepared in 150 mM NaCl and 2.2 mM CaCl2 using milli-Q water. The solution was heated at 80° C. for 30 minutes followed by slow cooling at room temperature. The pH of the solution was then adjusted to 4 using HCl. Finally, an Accumet XL15 pH meter (Fisher Scientific) coupled with an Orion Ross Ultra semi-micro electrode (8103BNUWP, Thermo Scientific) was used to track changes in pH of the solution as NaOH solution was added in small increments. pKa values were obtained from the second inflection points of the first derivative plots of the titration data. The first transition corresponds to neutralization of excess HCl. The calculated pKas reflect the average pKa for all four glutamic acids.

[4] = Fluorescence anisotropy (FA) in mouse blood serum (pure or diluted); details: only 1.5% PA67 isolated molecules in serum (control)
Protocol: Fluorescence and FA measurements were done using 20-100 μM of PA mixtures in 150 mM NaCl and 2.2 mM CaCl2 and various serum (MP Biomedicals) concentrations (0.75-100% v/v) diluted in the same salt buffer. PA samples in serum or MSA were not heated and cooled. All samples were then pH adjusted using HCl/NaOH solutions, transferred to a 96-well plate followed by collection of fluorescence emission from PA-(Rubipy)3 first parallel (Ipar) and then perpendicular (Iperp) to the excitation polarization using a hybrid reader fluorimeter (BioTek Synergy H4) at room temperature. The excitation wavelength used was 458 nm and the emission was monitored using a 640/20 nm filter. The same method was followed for control experiments involving serum background samples, dye conjugated MSA, only 1.5% PA-(Rubipy)3 in serum and 100 μM PA mixture in MSA and salt buffer. FA was calculated using the following equation: […]

[5] = MRI r1 relaxivity measurement, 1.5 Tesla; details: control standard, 1.5 T
Protocol: An MR relaxometry phantom was built by fixing 5 mm NMR sample tubes containing PA samples at a concentration of 500 μM and pH values 4 and 10 in a 600 ml beaker filled with deionized water. The samples also contained 150 mM NaCl and 2.2 mM CaCl2. The phantom was scanned on a 1.5 Tesla Signa Excite MRI scanner using an 8-channel phased-array head coil (GE Healthcare, Milwaukee, Wis., USA). R relaxometry data were acquired using an Inversion Recovery Fast Spin-Echo (IR-FSE) sequence with the following parameters: inversion time TI=50/100/200/400/600/800/1200/1600/3200 ms; repetition time TR=8000 ms; echo time TE=11 ms; echo train length=10; 90° flip angle; 100×100 mm^2 field-of-view (FOV); 0.5 mm in-plane resolution; 2 mm slice thickness; single coronal slice placed at the center of the phantom. Sample longitudinal relaxation rates (R1) were calculated by fitting the MR signal intensities observed at different TIs (S(TI)) to a three parameter model [Lu et al., MRM 2004]:
S(TI)=|S0×(1−C×exp(−TI×R1))|
Where S0 is the equilibrium signal, C is a constant accounting for imperfect inversion of magnetization. The r1 relaxivity was calculated as the slope in the linear relationship between sample concentrations and their R1 relaxation rates.

[6] = basic to acidic transition from spherical micelle to cylindrical fiber, simulated serum environment (150 mM NaC, 2.2 mM CaCl2)
[7] = basic to acidic transition from small molecule to cylindrical nanofiber, simulated serum environment

Compound: Palmitoyl-IAAAEEEEK(DO3A:Tb)-NH2 (Palmitoyl-IAAAEEEEK(DO3A)-NH2; also: DO3A chelates Tb) [PA7]
- pH transition point at 10 μm PA [1, 6]: 5.7

Compound: Palmitoyl-YAAAEEEEK(DO3A:Gd)-NH2 (Palmitoyl-YAAAEEEEK(DO3A)-NH2; also: DO3A chelates Gd) [PA9]
- pH transition point at 10 μm PA [1, 6]: 5.1

- CD Transition pH [1]: 6.6
- pH transition point at 10 μm PA [1, 7]: 6.6
Compound: CCCCCCCCCCCCCCCC(=O)N[C@@H](Cc1ccccc1)C(=O)N[C@@H](C)C(=O)N[C@@H](C)C(=O)N[C@@H](C)C(=O)N[C@@H](CCC(=O)O)C(=O)N[C@@H](CCC(=O)O)C(=O)N[C@@H](CCC(=O)O)C(=O)N[C@@H](CCC(=O)O)C(N)=O [PA2] (Palmitoyl-FAAAEEEE-NH2)

- micelle to nanofiber transition pH, more basic than PA74 ([1]; all concentrations observed): 0.15-0.63 pH units
- nanofiber diameter ([2]; FIG. 50: pH 5, PA74 500 μM, PA75 100 μM): 8.1±1.3 nm
- morphology by TEM ([2]; pH 5, PA74 500 μM, PA75 100 μM): nanofiber morphology
- morphology by TEM ([2]; pH 9, PA74 500 μM, PA75 100 μM): spherical micelle morphology
Compound: pentadecyl-YYAAEEEEK(DO3A:Gd)-NH2 [PA75]

- CD pattern ([1]; 10 μM, pH 5-11): β-sheet pattern
- nanofiber diameter ([2]; 500 μM, pH 5): 8.5±1.0 nm
- nanofiber diameter ([2]; 500 μM, pH 9): 8.6±0.9 nm
Compound: palmitoyl-YYAAEEEEK(DO3A:Gd)-NH2 [PA73]

Compound: Palmitoyl-VAAAEEKE-NH2 [PA11]
- pH transition point at 10 μm PA [1, 7]: 6.2

- glutamic acids in the deprotonated form at the transition [3]: 91%
- CD Transition pH [1]: 6.0
- pH transition point at 10 μm PA [1, 7]: 6.0
Compound: CCCCCCCCCCCCCCCC(=O)N[C@@H](Cc1ccc(O)cc1)C(=O)N[C@@H](C)C(=O)N[C@@H](C)C(=O)N[C@@H](C)C(=O)N[C@@H](CCC(=O)O)C(=O)N[C@@H](CCC(=O)O)C(=O)N[C@@H](CCC(=O)O)C(=O)N[C@@H](CCC(=O)O)C(N)=O [PA4] (Palmitoyl-YAAAEEEE-NH2)

Compound: Palmitoyl-MAAAEEEEK-Rubipy (Palmitoyl-MAAAEEEEK(Rubipy); not fully specified (C-terminus); printed as Palmitoyl-MAAAEEEEK-Rubipy) [PA67]
- FA, constant independent of pH [4]: ~0.05

Compound: Palmitoyl-IAAAEEEEK(DO3A:Lu)-NH2 (Palmitoyl-IAAAEEEEK(DO3A)-NH2; also: DO3A chelates Lu) [PA8]
- pH transition point at 10 μm PA [1, 6]: 5.7

Compound: Palmitoyl-VAAAEEEEK(DO3A:Gd)-NH2 (Palmitoyl-VAAAEEEEK(DO3A)-NH2; also: DO3A chelates Gd) [PA6]
- pH transition point at 10 μm PA [1, 6]: 5.3
- nanofiber to micelle transition pH, lower than PA5 ([1]; for each concentration (10 μM, 500 μM)): 0.4 units

Compound: CNC[C@H](O)[C@@H](O)[C@H](O)[C@H](O)CO.CNC[C@H](O)[C@@H](O)[C@H](O)[C@H](O)CO.O=C([O-])CN(CCN(CC(=O)[O-])CC(=O)O)CCN(CC(=O)[O-])CC(=O)O.[Gd+3] [Magnevist, reference compound]
- relaxivity of water protons [5]: 4.5 mM⁻¹ s⁻¹
